Legend:
[1] = tested on: uveal melanoma (UM 92.1) cell line; assay: IncuCyte proliferation assay (% cell confluency); type: cell-based; conditions: UM 92.1 (GNAQ mutant), increasing concentrations of Tigecycline, 72 h, FIG. 4
Protocol: (§1) For IncuCyte Proliferation Assays, cells were plated in 96-well plates (TPP) at the appropriate density (between 2.5×10^3, to 1.5×10^4). Cells were treated with increasing amounts of Tigecycline or Doxycycline and cultured for 72 h. Apoptotic cells were labelled with the IncuCyte Caspase 3/7 Green Apoptosis Assay Reagent (Essen BioScience). Four images per well were taken at 2-hour intervals using an IncuCyte ZOOM system (Essen BioScience). The percentage of cell confluency and fluorescent green counts indicating apoptotic cells were measured and analysed by the IncuCyte ZOOM software.

[2] = tested on: uveal melanoma cell line (UM92.1); assay: IncuCyte Caspase 3/7 Green apoptosis assay; type: cell-based; conditions: UM92.1, increasing concentrations of Tigecycline
Protocol: as §1

[3] = tested on: uveal melanoma PDX model Mel-077; assay: Uveal melanoma PDX experiment, tumour volume; type: in vivo; conditions: Mel-077 PDX mice, Tigecycline 50 mg/kg daily i.p. monotreatment vs vehicle (DMSO), FIG. 5
Protocol: Tumour pieces were implanted subcutaneously in the interscapular fat pad of female NMRI nude, 4-week-old females. Once tumours reached 250 mm^3, the mice were enrolled into treatment cohorts. Mice were treated with Tigecycline (50 mg/kg) administered by daily i.p. injection. No specific randomization method was used.

CN(C)c1cc(NC(=O)CNC(C)(C)C)c(O)c2c1C[C@H]1C[C@H]3[C@H](N(C)C)C(O)=C(C(N)=O)C(=O)[C@@]3(O)C(O)=C1C2=O [Tigecycline]
cell growth (measured as % of cell confluency) [1]: significant and dose-dependent decrease in cell growth
apoptosis (activated caspase 3/7 staining) [2]: no increase in apoptosis
tumour growth / progression (tumour volume) [3]: sufficient to stabilise tumour growth and significantly delay progression

Source: patent US20220211726A1, “UVEAL MELANOMA TREATMENT” (Katholieke Universiteit Leuven, priority 2019, published 2022)
